Measured values reported in US9493466B2, “Treatment of cancer with TOR kinase inhibitors” (Signal Pharmaceuticals, LLC, priority 2011, dated 2016).

What was measured:
[1] = test system: Hep3B2.1-7 human liver tumor cells; assay: Hepatocellular carcinoma (Hep3B2.1-7) orthotopic study; type: in vivo, mice; conditions: 10 mg/kg daily p.o., three weeks; FIGS. 17-18
Procedure: Hepatocellular Carcinoma (Hep3B2.1-7) Orthotopic Study. Hep3B2.1-7 human liver tumor cells were cultured in RPMI 1640 cell culture medium, supplemented with 10% FBS, 1% Glutamax and 1% penicillin-streptomycin. The cells were harvested by trypsinization, washed twice in HBSS and counted. The cells were then resuspended in HBSS:Matrigel™ (1:1, v/v) to a final concentration of 2×10^8 cells/mL. Prior to inoculation (while the animal was anesthetized via injectable Ketamil (10 mg/mL)/Xylazil (0.9 mg/mL) anesthetic), the skin on the incision site was swabbed with alcohol and an incision was made into the skin directly over the liver to expose the main lobe of the liver. The needle was introduced into the main lobe of the liver, where 2×10^6 Hep3B2.1-7 cells (in 10 μL with 50% Matrigel™) were discharged. Fourteen days post-inoculation, a satellite group of mice were culled to assess the presence of tumors in the liver.
Compound 1 powder was suspended in 0.5% CMC/0.25% Tween80 to achieve a stock concentration of 2 mg/mL. […]
The Vehicle Control and Test Articles were administered in a dosing volume of 5 mL/kg. Each animal's body weight was measured immediately prior to dosing. The volume of dosing solution administered to each animal was calculated and adjusted based on individual body weight. […]

[2] = Phase 1/2 study Part A: pharmacokinetics; type: in vivo, human
Procedure: During the first cycle only in Part A, each subject will be administered a single dose of Compound 1 (Day −1), followed by a 48-hour observation and PK sampling period, followed on Day 1 by daily uninterrupted dosing for 28 days (Cycle 1=30 days). In subsequent Part A cycles, subjects are treated in 28-day cycles with continuous dosing from Day 1 to 28. In Part B, subjects will receive continuous dosing for 28 days from the beginning—there is neither an initial observation period nor a 48-hour PK collection.

HCC = assay: Phase 1/2 study Part B: tumor response, HCC; type: in vivo, human; conditions: 14 evaluable patients
Description: (§1) In Part B, subjects may start Compound 1 at the MTD and/or a lower dose level based on safety, PK and PD data from Part A. Approximately 150 subjects will be treated and evaluated for safety and preliminary antitumor activity after every two cycles of therapy. Tumor types include non-small cell lung cancer (NSCLC), glioblastoma multiforme (GBM), hepatocellular carcinoma (HCC), gastrointestinal neuroendocrine tumor of non-pancreatic origin (NET), diffuse large B-cell lymphoma (DLBCL), multiple myeloma (MM), and hormone receptor positive breast cancer (HRPBC). Up to 20 subjects will be enrolled in each tumor type.
Subjects will be evaluated for efficacy every 2 cycles through cycle 6 and every 3 cycles thereafter. The primary efficacy variable is response. Tumor assessments, including imaging (CT, MRI and/or PET) of the chest and abdomen and other sites as appropriate, will be performed during Screening. Subjects with brain lesions will also have brain scans at Screening and during follow-up tumor assessments. After Screening, tumor assessments (for all tumors except multiple myeloma) will be performed on completion of Cycles 2, 4 and 6 (i.e., on Cycles 3, 5 and 7/Day 1±7 days) and then every 3 months thereafter (e.g., Cycle 10 and 13/Day 1±7 days). Tumor assessment (for multiple myeloma and only NHL/DLBCL with known or suspected marrow involvement) (bone marrow aspiration and biopsy, with PD biomarker analysis, cytogenetic analysis if abnormally present at Screening) will be performed on completion of Cycles 4, 8, 12 and 16 only (i.e., on Cycles 5, 9, 13 and 17/Day 1±7 days). Cytogenetics need not be repeated if normal at Screening. […] Subjects will be evaluated for tumor response on completion of Cycle 2, 4, 6, and so on. […]
(§2) For Part B, efficacy variables to be analyzed include tumor response at the end of treatment, the proportion of subject alive and progression-free, and duration of response. […]

MM = assay: Phase 1/2 study Part B: tumor response, MM; type: in vivo, human; conditions: 11 evaluable patients, up to 9 cycles
Description: as §1
Subjects will be evaluated for efficacy every 2 cycles through cycle 6 and every 3 cycles thereafter. The primary efficacy variable is response. Tumor assessments, including imaging (CT, MRI and/or PET) of the chest and abdomen and other sites as appropriate, will be performed during Screening. Subjects with brain lesions will also have brain scans at Screening and during follow-up tumor assessments. […] Subjects will be evaluated for tumor response on completion of Cycle 2, 4, 6, and so on. […]
as §2

[3] = Phase 1/2 study Part A: safety and tolerability
Description: The study is designed as a Phase 1/2 trial consisting of two parts: dose escalation (Part A) and dose expansion (Part B).
Subsequently, a standard escalation dosing schedule with approximately 50% dose increments and 6 subjects per cohort will be initiated in order to establish the non-tolerated dose (NTD) and MTD. Smaller increments and additional subjects within a dose cohort may also be evaluated.
A dose will be considered to be non-tolerated if 2 evaluable subjects in a dose cohort experience dose-limiting toxicity (DLT). When a NTD is defined, dose escalation will be stopped. The MTD will be defined as the last dose tested below the NTD with 0 or 1 out of 6 evaluable subjects experiencing DLT during Cycle 1. An intermediate dose (i.e., one between the NTD and the last dose level before the NTD) or additional subjects within any dose cohort may be required to determine the MTD more precisely.
The safety variables for this study are adverse events, clinical laboratory variables, 12-lead ECGs (centrally reviewed), LVEF assessments, physical examinations and vital signs. In Part A, the decision to either evaluate a higher dose level or declare a MTD will be determined by the Safety Review Committee (SRC) each time all clinical and laboratory safety data for a given cohort is available for review. The SRC will also determine the dose, doses, or schedule appropriate for Part B. During Part B, the SRC will continue to review safety data regularly and make recommendations about the study continuation, as appropriate.
Part A: Accelerated Dose Escalation Results.

CO[C@H]1CC[C@H](N2C(=O)CNc3ncc(-c4ccc(C(C)(C)O)nc4)nc32)CC1 [Compound 1, 7-(6-(2-hydroxypropan-2-yl)pyridin-3-yl)-1-((1r,4r)-4-methoxycyclohexyl)-3,4-dihydropyrazino-[2,3-b]pyrazin-2(1H)-one]
tumor growth inhibition [1]: significant tumor growth inhibition | mean steady state Cmax ([2]; 45 mg, day 15): 485 ng/mL | AUC0-24 ([2]; 45 mg, mean steady state): 2371 ng^xhr/mL | drug accumulation ([2]; after 15 days of dosing): only minimal drug accumulation | exposures versus levels estimated to provide >50% inhibition of TORC1 (pS6) and TORC2 (pAKT) for at least 8 hours ([2]; dose levels of 30 mg and higher, estimate from preclinical xenograft models): exceeded | drug exposure versus dose ([2]; high intersubject variability): Dose proportional | best target lesions responses (reduction) (HCC): up to 47% | patients meeting Partial Response (RECIST 1.1) (HCC): 2 patients | patients meeting at least Stable Disease (RECIST 1.1) (HCC): 5 patients | tumor responses (IURCMM criteria) (MM): No tumor responses | DLT ([3]; 30 mg): Grade 3 hyperglycemia | DLT ([3]; 45 mg): grade 3 rash | DLT ([3]; 60 mg): Fatigue and mucositis | dose level of the first grade 2 related toxicity ([3]; 3rd dose level): 30 mg | most frequent related events ([3]; N=28, 7.5 to 60 mg): Fatigue, GI toxicity (including mucositis/stomatitis), hyperglycemia, rash and arthralgia | MTD ([3]; once daily, oral): 45 mg | NTD ([3]; once daily, oral): 60 mg | Hyperglycemia ([3]; onset often during cycle 1, dose related): reported frequently | interstitial pneumonitis ([3]; responded to steroid treatment): One case of grade 3 interstitial pneumonitis requiring hospitalization | tolerability ([3]; toxicities comparable to other drugs targeting this pathway): well tolerated
